Experiment [1] relates to depressive-like behavior induced by Aβ. Particulars: through the increased levels of NA; no reference given; cited from earlier work.
In another experiment the test system is Aβ-treated rats. Set-up: method as in PMID 28499898. The note with it: acute treatment; cited from earlier work.
The subject of experiment [2] is Aβ-treated mice. In words: Splash test in Aβ-treated mice. It is filed as in vivo. The note with it: mice 7 days after icv Aβ 4 µM; sublingual AKBA 5 mg/kg 30 min before testing; Aβ vs SHAM, Aβ+AKBA vs Aβ.
For experiment [3], the system named is Aβ-treated mice. Description: Tail suspension test in Aβ-treated mice. The class given is in vivo. The note with it: mice 7 days after icv Aβ 4 µM, sublingual AKBA 5 mg/kg 30 min before, Aβ vs SHAM.
For the next experiment, the system named is noradrenaline (NA). In words: Noradrenaline quantification in PFC and HIPP by HPLC with electrochemical detection. The class given is in vivo. The note with it: HIPP, mice 7 days after icv Aβ 4 µM; sublingual AKBA 5 mg/kg 30 min earlier. As to the method: (§1) All behavioral experiments were conducted at 5 or 30 min after sublingual administrations of AKBA or vehicle in either SHAM or Aβ-treated mice. Based upon behavioral outcomes observed, neurochemical and biochemical quantifications were performed 30 min after AKBA or vehicle administration in either SHAM or Aβ-treated mice.
(§2) Anesthetized animals were sacrificed by cervical dislocation. Brains were immediately removed and kept on ice for dissection of PFC and HIPP, according to the atlas of Paxinos and Franklin. Tissues were frozen and stored at −80 °C until analyses were carried out. Samples (PFC and HIPP) were homogenized (1:10 w/v) at 4 °C using a PBS buffer containing a 1:100 protease and phosphatase inhibitor cocktail (HALT inhibitors, Thermo Fisher Scientific, Cleveland, OH, USA) for biochemical analyses or perchloric acid 0.1 M for neurochemical analyses. Homogenates were centrifuged at 13,000× g at 4 °C for 20 min, and supernatants were used for further determinations.
(§3) 5-HT, noradrenaline (NA), and KYN levels were measured in the PFC and HIPP of mice by HPLC coupled with an electrochemical detector (Ultimate ECD, Thermo Scientific Dionex, Milan, Italy) as already reported. Separation was performed by a LC18 reverse phase column (Kinetex, 150 mm × 3.0 mm, ODS 5 μm; Phenomenex, Castel Maggiore-Bologna, Italy). The detection was accomplished by a thin layer amperometric cell (Thermo Scientific Dionex, Milan, Italy) with a 5 mm diameter glassy carbon electrode at a working potential of 400 mV (5-HT and NA) or 0.750 mV (KYN) vs. Pd. The mobile phase consisted of an aqueous buffer containing 75 mM NaH2PO4, 1.7 mM octane sulfonic acid, 0.3 mM EDTA, and acetonitrile 10%, buffered at pH 3.0. […] GLU concentrations were determined by HPLC coupled with fluorescence detection (emission length 460 nm; excitation length 340 nm), as previously published. […] Results were analyzed by Borwin software (version 1.50; Jasco, Cremella, Italy) and the amino acid concentration was expressed as µM. All data were normalized for total area weight and were expressed as concentration/mg of tissue.

In a further experiment the test system is glutamate (GLU). In words: Glutamate quantification in PFC and HIPP by HPLC with fluorescence detection. The class given is in vivo. The note with it: mice 7 days after icv Aβ 4 µM, sublingual AKBA 5 mg/kg 30 min earlier. As to the method: as §1, §2, §3
For another experiment, the system named is kynurenine (KYN). In words: Kynurenine quantification in PFC and HIPP by HPLC with electrochemical detection. The note with it: mice 7 days after icv Aβ 4 µM, sublingual AKBA 5 mg/kg 30 min earlier. It is filed as in vivo. As to the method:
as §1, §2
(§4) 5-HT, noradrenaline (NA), and KYN levels were measured in the PFC and HIPP of mice by HPLC coupled with an electrochemical detector (Ultimate ECD, Thermo Scientific Dionex, Milan, Italy) as already reported. Separation was performed by a LC18 reverse phase column (Kinetex, 150 mm × 3.0 mm, ODS 5 μm; Phenomenex, Castel Maggiore-Bologna, Italy). The detection was accomplished by a thin layer amperometric cell (Thermo Scientific Dionex, Milan, Italy) with a 5 mm diameter glassy carbon electrode at a working potential of 400 mV (5-HT and NA) or 0.750 mV (KYN) vs. Pd. The mobile phase consisted of an aqueous buffer containing 75 mM NaH2PO4, 1.7 mM octane sulfonic acid, 0.3 mM EDTA, and acetonitrile 10%, buffered at pH 3.0. The flow rate was kept at 0.7 mL·min-1 by an isocratic pump (Shimadzu LC-10 AD, Kyoto, Japan). Data acquisition and integration were performed by using Chromeleon software (version 6.80, Thermo Scientific Dionex, Milan, Italy). GLU concentrations were determined by HPLC coupled with fluorescence detection (emission length 460 nm; excitation length 340 nm), as previously published. Analyses were carried out using an LC18 reverse phase column (Kinetex, 150 mm × 3.0 mm, ODS 5 μm; Phenomenex, Castel Maggiore, Bologna, Italy) and detection was accomplished by pre-column derivatization with ophthalaldehyde/mercaptopropionic acid. The mobile phase consisted of a 50 mM sodium acetate buffer, at pH 6.95, with gradient methanol increasing linearly from 2 to 30% (v/v) over a 40 min run. […] Results were analyzed by Borwin software (version 1.50; Jasco, Cremella, Italy) and the amino acid concentration was expressed as µM. All data were normalized for total area weight and were expressed as concentration/mg of tissue.

The test system of the next experiment is 5-HT. Description: 5-HT quantification in PFC and HIPP by HPLC with electrochemical detection. The class given is in vivo. The note with it: mice 7 days after icv Aβ 4 µM, sublingual AKBA 5 mg/kg 30 min earlier. The procedure: as §1, §2, §4
The subject of another experiment is GFAP. Description: Western blotting quantification of GFAP in PFC and HIPP. The class given is in vivo. The note with it: mice 7 days after icv Aβ 4 µM, sublingual AKBA 5 mg/kg 30 min earlier. As to the method:
as §1, §2
(§5) The total amount of proteins was measured in homogenates by using Pierce BCA Assay (Thermo Fisher Scientific, Cleveland, OH, USA). Forty µg of the total lysate protein were separated by SDS-PAGE precast gels (Bio-Rad Laboratories Inc., Segrate (MI), Italy), transferred onto nitrocellulose membranes (Bio-Rad Laboratories Inc, Segrate (MI), Italy) and then blocked for 1 h in blocking buffer (SigmaAldrich, Milan, Italy). Rabbit polyclonal antibody against GFAP (Dako Products, USA; 1:2000), rabbit monoclonal antibody against CD11b (Abcam, Cambridge, MA, USA; ab133357, 1:1000) and mouse monoclonal antibody against NF-kB p65 (Santa Cruz Biotechnology, Dallas, Texas, USA; 1:2000) were used to incubate the membranes overnight at 4 °C. After HRP-conjugated specific antibody incubation, ECL reagent (Bio-Rad Laboratories Inc., Segrate (MI), Italy) was added to the immune complex and chemiluminescence was detected by ChemiDoc MP system (Bio-Rad Laboratories Inc., Segrate (MI), Italy). Optical densities of the bands were measured using ImageJ software (http://rsb.info.nih.gov/ij/ accessed on 15 March 2021) and normalized against bands relative to β-actin (1:5000, Abcam, Cambridge, UK).
On the technique in general: A western blot detects proteins with antibodies after separation by electrophoresis.

In a further experiment the test system is CD11b. In words: Western blotting quantification of CD11b in PFC and HIPP. The class given is in vivo. Particulars: mice 7 days after icv Aβ 4 µM, sublingual AKBA 5 mg/kg 30 min earlier. The procedure: as §1, §2, §5
Another experiment concerns NF-kB p65. Description: Western blotting quantification of NF-kB p65 in PFC and HIPP. The class given is in vivo. The note with it: mice 7 days after icv Aβ 4 µM, sublingual AKBA 5 mg/kg 30 min earlier. The procedure: as §1, §2, §5

As to `CNCCC(Oc1ccc(C(F)(F)F)cc1)c1ccccc1` (stereo not drawn) [fluoxetine], the “Depressive-like behavior induced by Aβ” value in [1] is “reduced the depressive-like behavior”.
For the compound `CNC1(c2ccccc2Cl)CCCCC1=O` (stereo not drawn) [ketamine], in the experiment with Aβ-treated rats, the “Pro-depressive-like effect of Aβ in rats” value is given as “able to revert”.
Take “Aβ: soluble amyloid beta 1-42 peptide (Tocris), injected icv at 4 µM to evoke a depressive-like phenotype [reference compound]”: in the experiment on Aβ-treated mice [2], the “Latency to leak in the splash test” value was “significant increase in latency to leak” and the “Time spent performing self-care in the splash test” value is “reduction in time spent performing self-care”. In addition, the “Immobility time in the tail suspension test” value with Aβ-treated mice [3] is “significant increase in the immobility time”. In addition, the “NA levels in the HIPP” value in the experiment with noradrenaline (NA) is recorded as “significant increase in catecholamine levels”. For the same compound, the “GLU levels in the HIPP” value in the experiment on glutamate (GLU) (HIPP) was “significantly increased hippocampal GLU levels”. In addition, the “GLU levels in the PFC” value with glutamate (GLU) (PFC) was “increased GLU levels compared to SHAM mice”. Besides, in the experiment with kynurenine (KYN) (HIPP), the “KYN levels in the HIPP” value is “increase in KYN levels induced by the peptide”. Also, in the experiment with kynurenine (KYN) (PFC), the “KYN levels in the PFC” value was “significant increase in cortical KYN levels”. Further, the “5-HT levels in the HIPP” value in the experiment on 5-HT (HIPP) is given as “no differences among experimental groups”. Besides, the “5-HT levels in the PFC” value in the experiment on 5-HT (PFC) was “significant decrease in PFC”. Besides, in the experiment with GFAP (HIPP), the “GFAP levels in the HIPP (optical density normalized to actin)” value is reported as “significant increase in hippocampal GFAP levels”. For the same compound, the “GFAP levels in the PFC (optical density normalized to actin)” value in the experiment on GFAP (PFC) is reported as “significant increase in GFAP levels”. In addition, the “CD11b levels in the HIPP (optical density normalized to actin)” value in the experiment on CD11b (HIPP) was “significant enhanced hippocampal levels”. In the experiment on CD11b (PFC), the “CD11b content in the PFC (optical density normalized to actin)” value is recorded as “no differences were found among experimental groups”. Also, in the experiment on NF-kB p65 (HIPP), the “NF-kB p65 content in the HIPP (optical density normalized to actin)” value is given as “significantly increased the levels of this transcription factor”. Also, the “NF-kB p65 levels in the PFC (optical density normalized to actin)” value with NF-kB p65 (PFC) was “significantly increased cortical NF-kB levels”.
